# Reference: patent publication US20230021562A1, “[…] D[…]-1 INHIBITORS” (priority 2019, published 2023)
# Values joined by “and” are separate entries in the source; they are usually repeats but may differ in a detail not shown here. Equal entries are not always repeated. Where two headings read alike, the source gives them in different places.
# How the values were obtained:
# [1] = target: Myeloid Cell Leukemia 1 (Mcl-1) (Homo sapiens, UniProt Q07820); test: biochemical; assay type: binding; settings: HTRF Ki (nM)
# MOLP8 cell line = test: MOLP8 CellEvent Caspase-3/7 Green live-cell IncuCyte apoptosis assay; assay type: cell-based, human; settings: averaged values
# Protocol: (§1) MCL-1 is a regulator of apoptosis and is highly over-expressed in tumor cells that escape cell death. The assay evaluates the cellular potency of small-molecule compounds targeting regulators of the apoptosis pathway, primarily MCL-1, Bfl-1, Bcl-2, and other proteins of the Bcl-2 family. Protein-protein inhibitors disrupting the interaction of anti-apoptotic regulators with BH3-domain proteins initiate apoptosis.
# Activation of the apoptotic pathway was measured using the CellEvent™ Caspase-3/7 Green ReadyProbes™ Reagent (Thermo Fisher C10423, C10723). This assay produces a green fluorescent stain in cells that enter the apoptosis pathway. CellEvent® Caspase-3/7 Green reagent is a four amino acid peptide (DEVD) conjugated to a nucleic acid-binding dye that is non-fluorescent when not bound to DNA. The CellEvent® Caspase-3/7 Green reagent is intrinsically non-fluorescent, as the DEVD peptide inhibits binding of the dye to DNA. Upon activation of caspase-3/7 in apoptotic cells, the DEVD peptide is cleaved and the free dye can bind DNA, generating a bright green fluorescence. The activation of Caspase-3 and Caspase-7 is downstream of inhibition of MCL-1 or other apoptosis inhibiting proteins in cell lines that are dependent on them.
# The live-cell readout on the IncuCyte permits tracking over time of the Caspase activation. […] The IncuCyte readout also allows one to normalize for cell number, as the suspension cells are hard to distribute evenly.
# Signals were measured every 2 h for a duration of 22 h. The ratio of the Caspase mask to the Confluence mask, per image, as raw data, was calculated and the kinetic trace for every well was exported to Genedata Screener for analysis.
# In Genedata Screener values for 6 h, 12 h, and 22 h from the kinetic traces were extracted. The values were normalized against negative controls (untreated cells). A standard dose-response analysis was performed on the normalized data.
# The following data was reported at each of the following three aforementioned time points: (a) The dose-response curve, (b) The qAC50 and qAC50 Mode, and (c) Max Activity.
# Cells were maintained in culture medium containing 10% Heat Inactivated (HI) FBS, 2 mM L-Glutamine and 50 μg/mL Gentamycin phenol red free RPMI-1640. Cells were split at 0.4 million/mL twice a week.
# On Day 1, plates containing individual wells with test compounds at 10 mM concentration, 150 nL per well. The final concentrations range from […] compound (and no compound control) and compounds were thawed at room temperature for 1 hour. 25 μl of prewarmed medium was added into each well by multidrop (column 1, 3-22, 24), followed by addition of DMSO control (0.6% DMSO) in column 2. The plate was sealed using Breathe-Easy® sealing membrane and shaken for 30 min at room temperature to dissolve the test compound(s) in medium. The plate was then kept in the incubator for 1 hour at 37° C., 5% CO2.
# MOLP8 cells in medium at […] (20000/50 μl final in assay) were prepared with CellEvent™ Caspase-3/7 Green Detection Reagent at 4 μM (2 μM final in assay). Once prepared, the cells were added to the test compound plate in an amount of 20000 and the plate was immediately placed in the IncuCyte and imaging started using following settings: 10× objective, 2 s exposure time in green channel, interval of 2 h, acquisition stopped after 22 h.
# For analysis in IncuCyte, a Basic Analysis protocol was defined to calculate the “confluence” and “caspase” areas from the “Phase” and “green” images, respectively, as follows: (a) Confluence: Segmentation Adjustment 1, Hole Fill 0, Adjust Size −2, No filters (b) Caspase: Top-Hat segmentation, Radius 10, Threshold 0.3 GCU, Edge Split On with sensitivity 0, Hole Fill 0, Adjust Size 1, and filter on a minimum Area of 20 μm^2. The analyzer is trained on a sufficient number of positive and negative control wells, as well as compound treated wells, verifying that the “confluence” layer detects both live and dead (condensed) cells. […]
# [2] = test system: MOLP-8 human multiple myeloma cell line; test: MOLP8 Caspase-Glo 3/7 luminescent assay; assay type: cell-based; settings: averaged over all runs on all batches
# Description: as §1
# The Caspase-Glo® 3/7 Assay is a luminescent assay that measures caspase-3 and -7 activities in purified enzyme preparations or cultures of adherent or suspension cells. The assay provides a proluminescent caspase-3/7 substrate, which contains the tetrapeptide sequence DEVD. This substrate is cleaved to release aminoluciferin, a substrate of luciferase used in the production of light. Addition of the single Caspase-Glo® 3/7 Reagent in an “add-mix-measure” format results in cell lysis, followed by caspase cleavage of the substrate and generation of a “glow-type” luminescent signal.
# This assay uses the MOLP-8 human multiple myeloma cell line, which is sensitive to MCL-1 inhibition.
# Cell cultures were maintained between 0.2 and 2.0×10^6 cells/mL. The cells were harvested by collection in 50 mL conical tubes. The cells were then pelleted at 500 g for 5 mins before removing supernatant and resuspension in fresh pre-warmed culture medium. The cells were counted and diluted as needed.
# The assay reagent was prepared by transferring the buffer solution to the substrate vial and mixing. The solution may be stored for up to 1 week at 4° C. with negligible loss of signal.
# Compounds were delivered in assay-ready plates (Proxiplate) and stored at −20° C.
# Assays always include 1 reference compound plate containing reference compounds. The plates were spotted with 40 nL of compounds (0.5% DMSO final in cells; serial dilution; 30 μM highest conc. 1/3 dilution, 10 doses, duplicates). The compounds were used at room temperature and 4 μL of pre-warmed media was added to all wells except column 2 and 23. The negative control was prepared by adding 1% DMSO in media. The positive control was prepared by adding the appropriate positive control compound in final concentration of 60 μM in media. The plate was prepared by adding 4 μL negative control to column 23, 4 μL positive control to column 2 and 4 μL cell suspension to all wells in the plate. The plate with cells was then incubated at 37° C. for 2 hours. The assay signal reagent is the Caspase-Glo solution described above, and 8 μL was added to all wells. The plates were then sealed and measured after 30 minutes.
# The activity of a test compound was calculated as percent change in apoptosis induction as follows: […]
# [3] = read-out: MOLP8 Caspase 3/7 AC50 at 6 h, MOLP8 cells, 6 h
# [4] = read-out: MOLP8 Caspase 3/7 AC50 at 12 h, MOLP8 cells, 12 h
# [5] = read-out: MOLP8 Caspase 3/7 AC50 at 22 h, MOLP8 cells, 22 h
# [6] = Homo sapiens, MOLP-8, 2 h, read-out: MOLP8 Caspase-Glo AC50 (nM), MOLP8 cells, 2 hours incubation
# [7] = MOLP8 cells, 2 hours incubation, read-out: MOLP8 Caspase-Glo AC50
# [8] = Homo sapiens, MOLP-8, 6 h, read-out: MOLP8 Caspase 3/7 AC50 at 6 h (μM), MOLP8 cells, 6 h
# [9] = Homo sapiens, MOLP-8, 12 h, read-out: MOLP8 Caspase 3/7 AC50 at 12 h (μM), MOLP8 cells, 12 h
# [10] = Homo sapiens, MOLP-8, 22 h, read-out: MOLP8 Caspase 3/7 AC50 at 22 h (μM), MOLP8 cells, 22 h
# Sequence of Myeloid Cell Leukemia 1 (Mcl-1) (Q07820 whole entry): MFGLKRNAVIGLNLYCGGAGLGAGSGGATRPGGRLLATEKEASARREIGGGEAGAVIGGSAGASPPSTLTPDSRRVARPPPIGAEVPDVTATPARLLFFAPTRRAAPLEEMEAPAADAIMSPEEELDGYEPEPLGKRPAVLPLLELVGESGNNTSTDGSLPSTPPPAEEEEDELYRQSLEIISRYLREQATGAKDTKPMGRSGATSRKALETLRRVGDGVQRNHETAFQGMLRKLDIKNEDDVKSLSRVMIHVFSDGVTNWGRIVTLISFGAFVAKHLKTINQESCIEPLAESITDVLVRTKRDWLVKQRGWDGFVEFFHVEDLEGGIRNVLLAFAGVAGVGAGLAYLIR
SMILES,Ki [1],AC50 (MOLP8 cell line; [3]),AC50 (MOLP8 cell line; [4]),AC50 (MOLP8 cell line; [5]),"AC50 [2, 6]","AC50 [2, 7]",AC50 (MOLP8 cell line; [8]),AC50 (MOLP8 cell line; [9]),AC50 (MOLP8 cell line; [10]),"AC50 ([2]; Homo sapiens, MOLP-8, 2 h, MOLP8 cells, 2 hours incubation, read-out: MOLP8 Caspase-Glo AC50)"
"Cc1nn(CCO)c2c1-c1c(Cl)ccc3c(c(C(=O)O)n(C)c13)CCCOc1cc(cc3ccccc13)SCc1cc(nn1C)CN(C)C2 (single isomer, unassigned) [Compound 40]",2.48 nM and 2.61 nM,~26.3 µM,> 30.2 µM,~15.6 µM,10700 nM,,,,,
"Cc1nn(CCN2CCOCC2)c2c1-c1c(Cl)ccc3c(c(C(=O)O)n(C)c13)CCCOc1cc(cc3ccccc13)SCc1cc(nn1C)CN(C)C2 (single isomer, unassigned) [Compound 41]",0.05 nM and 0.03 nM,0.19 µM,0.2 µM,0.18 µM,,72 nM,,,,
"Cc1nn(CCN2CCOCC2)c2c1-c1c(Cl)ccc3c(c(C(=O)O)n(C)c13)CCCOc1cc(cc3ccccc13)SCc1cc(nn1C)CN(C)C2 (single isomer, unassigned) [Compound 42]",0.79 nM,2.96 µM,3.18 µM,2.98 µM,,1260 nM,,,,
Cc1c2c(nn1C)CSCc1cc(n[nH]1)CSc1cc(c3ccccc3c1)OCCCc1c(C(=O)O)n(C)c3c-2c(Cl)ccc13 [Compound 3],0.08 nM and 0.11 nM,,,,284 nM,,0.6 µM,0.55 µM,0.47 µM,
Cc1c2c(nn1C)CSCc1cc(nn1CCO)CSc1cc(c3ccccc3c1)OCCCc1c(C(=O)O)n(C)c3c-2c(Cl)ccc13 [Compound 6],0.16 nM,,,,414 nM,,0.71 µM,0.63 µM,0.48 µM,
COCCn1nc2cc1CSc1cc(c3ccccc3c1)OCCCc1c(C(=O)O)n(C)c3c(c(Cl)ccc13)-c1c(nn(C)c1C)CSC2 [Compound 10],0.11 nM,,,,49 nM,,0.2 µM,0.22 µM,0.21 µM,
Cc1c2c(nn1C)CSCc1cc(nn1CC1CCOCC1)CSc1cc(c3ccccc3c1)OCCCc1c(C(=O)O)n(C)c3c-2c(Cl)ccc13 [Compound 11],0.47 nM and 0.43 nM,,,,,,0.37 µM,0.43 µM,0.41 µM,385 nM
